# Measured values as given in publication PMC13492205, “LC–MS/MS method for the quantitation of a dual PI3K/BRD4 inhibitor SF2523 in mouse plasma: Application to plasma protein binding and metabolism studies” (Biomedical chromatography : BMC, 2023).
# Tests used:
# [1] = In vitro metabolic stability in mouse S9; settings: for metabolic stability of positive controls: S9 and microsomes, in-house limits
# Protocol: (§1) For metabolic stability samples, extractions (50 μl) were taken at each pre-determined time point and mixed with 300 μl of ice-cold methanol containing IS in a 1.5 ml centrifuge tube. Then, samples were vortexed for 2 min and centrifuged (17,950g) for 10 min. An aliquot (100 μl) of the clear supernatant was transferred into an autosampler vial and 2 μl was injected into the LC–MS/MS system.
# Metabolic stability was assessed using mouse, rat and human liver microsomes, and mouse liver S9 fractions (XenoTech, LLC, Lenexa, KS, USA) were used for the in vitro assessment of phase I and II metabolism. Incubation with S9 fractions was performed in triplicate, at 2 μM SF2523 concentration as described in our previous report ([Aldhafiri et al., 2020]; [Bala et al., 2020]). The reaction was started by adding 2 μl of SF2523 at a final concentration of 2 μM. Serial samples (50 μl) were collected at selected time intervals and quenched with 300 μl of methanol spiked with 10 μl of IS (0.5 μg/ml). All of the samples were vortexed and centrifuged at 13,000g for 15 min, and the supernatant was collected and transferred to an autosampler vial and injected (2 μl) onto the LC–MS/MS system. Testosterone 7-hydroxycoumarin and diclofenac were used as positive controls to ensure that S9, microsomes and the incubation conditions were appropriate to conduct metabolism studies.
# The S9 fraction and microsomal stability were expressed as the percentage of drug remaining at each time. The in vitro metabolic elimination rate constant was determined from the first-order plot of a natural logarithm of the area ratio vs. time. The slope of the linear regression equation was used to determine the elimination rate constant k (min^−1).
# [2] = system: mouse plasma proteins; assay: Plasma protein binding by rapid equilibrium dialysis; assay type: in vitro ADME
# Protocol: (§2) The sample contained mouse plasma spiked with 1 or 10 μM SF2523 and was added to the sample chamber. The rapid equilibrium dialysis kit top was then sealed and incubated at 37°C on an orbital shaker at 100 rpm for 5 h.
# (§3) At pre-determined times, aliquots (40 μl) were removed from the sample, and buffer chambers and mixed with an equal volume of buffer or blank plasma, respectively. The samples were further processed by SPE as described above and analyzed by LC–MS/MS. The stability, equilibrium, device recovery and PPB were calculated using the following equations ([Lindup & Orme, 1981]): (5) %Remaining at5h=[…]/Concentration0h×100 (6) %Equilibrium=Concentrationreceiver cell/Concentrationdonor cell×100 (7) %Device Recovery=Concentrationreceiver cell+Concentrationdonor cell/Concentration0h×100 (8) %Bound=Concentrationdonor cell−Conentrationreceiver cell/Concentrationdonor cell×100
# [3] = Stability of SF2523 in mouse plasma under storage conditions; assay type: in vitro ADME
# Protocol: Stability in mouse plasma was assessed in triplicate at LQC and HQC concentrations at room temperature (6 h, 25 ± 5°C), and after three freeze–thaw cycles (−80°C) and long-term storage (60 days at −80°C). Additionally, the 24 h autosampler stability of extracted samples (at 4°C) was determined.
# [4] = Gastrointestinal fluid stability (SGF, SIF, phosphate buffer); assay type: physicochemical; settings: 37°C
# Protocol: Simulated GIs were prepared according to United States Pharmacopoeia (USP) specifications. Briefly, SF2523 at 10 μM concentration was incubated with simulated gastric fluid (SGF). Simulated intestinal fluid (SIF) and phosphate buffer (100 mM, pH 7.4) were kept at 37°C in a shaking water bath, each in triplicate. Samples (100 μl) were collected at 0, 15, 30, 60 and 120 min. Immediately after sample collection, 5 vols of methanol containing IS were added and samples were prepared for analysis. Stability was determined as the percentage of parent compound detected at each time point relative to the concentration at 0 min in buffer (100%) ([Wang et al., 2015]).
# [5] = Blood-to-plasma ratio in mouse blood; assay type: in vitro ADME
# Protocol: At different time points (0, 30 and 60 min) aliquots (50 μl) were collected for blood analysis, and an additional sample (120 μl) was transferred to a microcentrifuge tube and centrifuged at 4,000g for 10 min at 4°C to separate 50 μl plasma for analysis. The whole blood and plasma samples were further processed by SPE as described above. The analyte peak area ratios were used to calculate the blood-to-plasma (B/P) ratio using Equation (4).
# (4) ∕PBration=Analyte concentration in whole blood/Analyte concentration in plasma
# [6] = Plasma protein binding by rapid equilibrium dialysis; assay type: in vitro ADME, mouse; settings: mouse plasma, mean, n = 3
# Protocol: as §2, §3
# [7] = In vitro metabolic stability in human S9; assay type: in vitro ADME; settings: S9 fraction; human S9, 2 μM; read-out: in vitro t1/2
# [8] = In vitro metabolic stability in mouse liver microsomes; assay type: in vitro ADME; settings: read-out: in vitro t1/2
# Protocol: as §1
# (§4) Metabolic stability was assessed using mouse, rat and human liver microsomes, and mouse liver S9 fractions (XenoTech, LLC, Lenexa, KS, USA) were used for the in vitro assessment of phase I and II metabolism. Incubation with S9 fractions was performed in triplicate, at 2 μM SF2523 concentration as described in our previous report ([Aldhafiri et al., 2020]; [Bala et al., 2020]). The reaction was started by adding 2 μl of SF2523 at a final concentration of 2 μM. Serial samples (50 μl) were collected at selected time intervals and quenched with 300 μl of methanol spiked with 10 μl of IS (0.5 μg/ml). […]
# (§5) The S9 fraction and microsomal stability were expressed as the percentage of drug remaining at each time. The in vitro metabolic elimination rate constant was determined from the first-order plot of a natural logarithm of the area ratio vs. time. […]
# [9] = In vitro metabolic stability in human liver microsomes; assay type: in vitro ADME; settings: read-out: in vitro t1/2
# Protocol: as §1, §4, §5
# [10] = Metabolite identification in mouse S9 fraction; assay type: in vitro ADME; settings: phase I and II, 35 min gradient LC–MS/MS
# Protocol: For metabolite identification, mass shift analyses were performed using the same LC–MS/MS system. […] The parent drug MS/MS spectrum was used as a template model for structure identification and assuming that the fragmentation pattern of the parent drug from the production spectrum was used to deduce the structures of the metabolites ([Francis et al., 1999]). The data acquisition for the metabolite identification study was conducted using Labsolution software (Shimadzu Scientific Instruments, Columbia, MD, USA, version 5.8).
# [11] = Stability of SF2523 in mouse plasma under storage conditions; assay type: in vitro ADME; settings: nominal 200 ng/ml, mean ± SD, n = 3, read-out: Stability recovery, Accuracy (%)
smiles,measurement,setting,value
O=c1ccc2ccc(O)cc2o1 [7-hydroxycoumarin],metabolic stability of positive controls,[1],within acceptable in-house limits
"CC(C)NCC(O)COc1cccc2ccccc12 (stereo not drawn) [propranolol, reference compound]",plasma protein binding of positive control drugs,"[2]; compared with limits reported in the literature (Barber et al., 1978)",within the acceptable limits
O=C(O)Cc1ccccc1Nc1c(Cl)cccc1Cl [diclofenac],metabolic stability of positive controls,[1],within acceptable in-house limits
O=c1cc(N2CCOCC2)oc2c(-c3ccc4c(c3)OCCO4)csc12 [SF2523],"recovery at 6 h, 0.3 ng/ml","[3]; mouse plasma, Bench-top stability for 8 h at (21°C, 6 h), nominal 0.3 ng/ml, mean ± SD, n = 3, read-out: Stability recovery, Accuracy (%)",95.8 ± 4.03%
same,"recovery at 6 h, 375 ng/ml","[3]; mouse plasma, Bench-top stability for 8 h at (21°C, 6 h), nominal 375 ng/ml, mean ± SD, n = 3, read-out: Stability recovery, Accuracy (%)",111.2 ± 0.21%
same,"recovery at 60 days, 0.3 ng/ml","[3]; mouse plasma, Long-term stability (60 days, −80°C), nominal 0.3 ng/ml, mean ± SD, n = 3, read-out: Stability recovery, Accuracy (%)",103 ± 2.62%
same,"recovery at 60 days, 375 ng/ml","[3]; mouse plasma, Long-term stability (60 days, −80°C), nominal 375 ng/ml, mean ± SD, n = 3, read-out: Stability recovery, Accuracy (%)",97.25 ± 0.35%
same,recovery at 0.3 ng/ml,"[3]; mouse plasma, Three freeze-thaw cycles (−80°C to room temperature), nominal 0.3 ng/ml, mean ± SD, n = 3, read-out: Stability recovery, Accuracy (%)",92.9 ± 12.3%
same,recovery at 375 ng/ml,"[3]; mouse plasma, Three freeze-thaw cycles (−80°C to room temperature), nominal 375 ng/ml, mean ± SD, n = 3, read-out: Stability recovery, Accuracy (%)",113.7 ± 0.14%
same,"recovery at 24 h, 0.3 ng/ml","[3]; mouse, extracted plasma samples, Autosampler stability (4°C, 24 h), nominal 0.3 ng/ml, mean ± SD, n = 3, read-out: Stability recovery, Accuracy (%)",105 ± 5.16%
same,"recovery at 24 h, 375 ng/ml","[3]; mouse, extracted plasma samples, Autosampler stability (4°C, 24 h), nominal 375 ng/ml, mean ± SD, n = 3, read-out: Stability recovery, Accuracy (%)",103 ± 1.13%
same,parent drug remaining,[3]; under a variety of storage conditions,> 90%
same,parent remaining,"[4]; phosphate buffer pH 7.4, 10 μM, after 2 h",> 90%
same,parent remaining,"[4]; simulated gastric fluid (SGF), pH 1.2, 10 μM, after 1 h",> 90%
same,parent remaining,"[4]; simulated intestinal fluid (SIF), pH 6.8, 10 μM, after 2 h",> 90%
same,B/P,"[5]; At 0.1 μg/ml, time point 0 min",0.85
same,B/P,"[5]; At 0.1 μg/ml, time point 30 min",0.98
same,B/P,"[5]; At 0.1 μg/ml, time point 60 min",0.83
same,B/P,"[5]; At 1 μg/ml, time point 0 min",0.85
same,B/P,"[5]; At 1 μg/ml, time point 30 min",0.93
same,B/P,"[5]; At 1 μg/ml, time point 60 min",0.93
same,blood plasma ratio at 0.1 μg/ml,"[5]; whole blood, 0.1 μg/ml, overall value, read-out: blood-to-plasma ratio (B/P)",0.88
same,blood plasma ratio at 1 μg/ml,"[5]; whole blood, 1 μg/ml, overall value, read-out: blood-to-plasma ratio (B/P)",0.9
same,"fraction unbound at 5 h, 1 µM","[6]; at 1 µM, read-out: Percentage plasma protein bound (converted)",0.0418
same,"fraction unbound at 5 h, 10 µM","[6]; at 10 µM, read-out: Percentage plasma protein bound (converted)",0.0327
same,recovery at 5 h,"[6]; mouse, mouse plasma in rapid equilibrium dialysis device, rapid equilibrium dialysis device, read-out: Percentage device recovery",> 90%
same,Percentage remaining at 5 h (stability),"[2]; mouse plasma, 37°C, 5 h incubation, mean, n = 3",99.06%
same,bound to mouse plasma proteins,"[2]; mouse plasma, both tested concentrations",> 95%
same,Percentage device recovery,"[2]; rapid equilibrium dialysis device, mouse plasma, mean, n = 3",98.58%
same,half-life at 2 μM,"[1]; mouse, liver S9 fraction",< 2 min
same,half-life at 2 μM,[7],< 2 min
same,half-life at 2 μM,[8],< 2 min
same,half-life at 2 μM,[9],< 2 min
same,number of metabolites identified,[10],Seven
same,"recovery at 6 h, 200 ng/ml","[11]; mouse plasma, Bench-top stability for 8 h at (21°C, 6 h)",107 ± 4.5%
same,"recovery at 60 days, 200 ng/ml","[11]; mouse plasma, Long-term stability (60 days, −80°C)",103 ± 11.2%
same,recovery at 200 ng/ml,"[11]; mouse plasma, Three freeze-thaw cycles (−80°C to room temperature)",101 ± 5%
same,"recovery at 24 h, 200 ng/ml","[11]; mouse, extracted plasma samples, Autosampler stability (4°C, 24 h)",101 ± 1.77%
C[C@]12CC[C@H]3[C@@H](CCC4=CC(=O)CC[C@@]43C)[C@@H]1CC[C@@H]2O [testosterone],metabolic stability of positive controls,[1],within acceptable in-house limits
